Measured values: paper PMC3362575, “Synthesis and Biological Evaluation of Phenanthrenes as Cytotoxic Agents with Pharmacophore Modeling and ChemGPS-NP Prediction as Topo II Inhibitors” (PLoS ONE, 2012)
≈ marks a conversion by molar mass, not a printed value. Like-named read-outs stand apart in the source and are kept apart here.

Tests used:
MCF-7 = experiment: MTT cytotoxicity assay, MCF-7; format: cell-based, human; details: Homo sapiens; for IC50: MTT; for MCF-7 activity class (from IC50): MCF7, Table S3, read-out: Scale Exptl. (MCF-7 activity class)
Description: (§1) The cytotoxic assay of 11 naturally occurring and 19 synthesized phenanthrenes was carried out on a diverse set of human liver (HepG2 and Hep3B), oral (Ca9-22), lung (A549) and breast (MEA-MB-231 and MCF7) cancer cell lines, and a human fetal lung fibroblast (MRC-5) cell line (Tables 1 and 2).
(§2) Compounds were tested against human liver (HepG2 and Hep3B), oral (Ca9-22), lung (A549), breast (MEA-MB-231 and MCF7) cancer cell lines, and the human fetal lung fibroblast (MRC-5) cell line using an established colorimetric MTT assay protocol. The absorbance was measured at 550 nm using a microplate reader. The IC50 is the concentration of agent that reduced cell growth by 50% under the experimental conditions.
The pharmacophore modeling with Catalyst HypoGen was performed via Discovery Studio 2.1 (Accelrys, San Diego, CA, USA). Twenty-nine phenanthrene derivatives were collected from the natural plant, C. arisanensis, and from chemical synthesis (Figure 2). Cytotoxicity against MCF-7 cells was determined by the MTT assay and the concentration (µg/mL) of test compound which inhibited 50% of the cancer cells (IC50) was used in the generation of the pharmacophore model. An IC50 value of >20 µg/mL was defined as 20 µg/mL. All experimental IC50 values spanned about 2–3 orders of magnitude from 0.09 to 20 µg/mL. The 2D/3D structures of compounds were generated using ChemBioOffice 2008 (Cambridge Scientic Computing, Cambridge, Massachusetts, USA) and then optimized in a Dreiding force field. The conformational ensemble of each compound was generated using the best conformational analysis method based on a CHARMM force field with a 20 kcal/mol energy threshold above the global minimum. A maximum limit of 255 conformations was used to cover maximum conformational space. The best 3D arrangements of chemical functionalities should explain the activity variations among the 29 compounds. Thirty runs with different parameters were performed for the best pharmacophore hypothesis. Four chemical features, including hydrogen-bond acceptor (HBA), hydrogen-bond donor (HBD), hydrophobic (HYD), and aromatic ring (AR) features, were also tested during the building of pharmacophore hypotheses (Table S1; Text S1). The best hypotheses were selected via a correlation and a cost analysis in Catalyst HypoGen.

human cancer cell lines = experiment: MTT cytotoxicity assay, ranges over the cancer cell line panel; format: cell-based; details: for IC50: Homo sapiens
Description: as §1, §2

HepG2 = experiment: MTT cytotoxicity assay, HepG2; format: cell-based, human; details: Homo sapiens
Description: as §1, §2

Ca9-22 = experiment: MTT cytotoxicity assay, Ca9-22; format: cell-based, human; details: Homo sapiens
Description: as §1, §2

Hep3B = experiment: MTT cytotoxicity assay, Hep3B; format: cell-based, human; details: Homo sapiens, Hep3B
Description: as §1, §2

A549 = experiment: MTT cytotoxicity assay, A549; format: cell-based, human; details: Homo sapiens
Description: as §1, §2

MRC-5 = experiment: MTT cytotoxicity assay, MRC-5 fetal lung fibroblast; format: cell-based, human; details: Homo sapiens, normal fetal lung fibroblast
Description: as §1, §2

MDA-MB-231 = experiment: MTT cytotoxicity assay, MDA-MB-231; format: cell-based, human; details: Homo sapiens
Description: as §1, §2

topoisomerase IIα = target: T1, topoisomerase IIα (Homo sapiens, UniProt P11388); experiment: Topoisomerase II DNA cleavage assay (Topo II Drug Screening Kit); format: biochemical; details: for formation of linear DNA (Topo IIα DNA cleavage complex): pHOT plasmid DNA, topoisomerase IIα
T1 construct: purchased TopoGEN, Inc
T1 sequence (P11388 whole entry): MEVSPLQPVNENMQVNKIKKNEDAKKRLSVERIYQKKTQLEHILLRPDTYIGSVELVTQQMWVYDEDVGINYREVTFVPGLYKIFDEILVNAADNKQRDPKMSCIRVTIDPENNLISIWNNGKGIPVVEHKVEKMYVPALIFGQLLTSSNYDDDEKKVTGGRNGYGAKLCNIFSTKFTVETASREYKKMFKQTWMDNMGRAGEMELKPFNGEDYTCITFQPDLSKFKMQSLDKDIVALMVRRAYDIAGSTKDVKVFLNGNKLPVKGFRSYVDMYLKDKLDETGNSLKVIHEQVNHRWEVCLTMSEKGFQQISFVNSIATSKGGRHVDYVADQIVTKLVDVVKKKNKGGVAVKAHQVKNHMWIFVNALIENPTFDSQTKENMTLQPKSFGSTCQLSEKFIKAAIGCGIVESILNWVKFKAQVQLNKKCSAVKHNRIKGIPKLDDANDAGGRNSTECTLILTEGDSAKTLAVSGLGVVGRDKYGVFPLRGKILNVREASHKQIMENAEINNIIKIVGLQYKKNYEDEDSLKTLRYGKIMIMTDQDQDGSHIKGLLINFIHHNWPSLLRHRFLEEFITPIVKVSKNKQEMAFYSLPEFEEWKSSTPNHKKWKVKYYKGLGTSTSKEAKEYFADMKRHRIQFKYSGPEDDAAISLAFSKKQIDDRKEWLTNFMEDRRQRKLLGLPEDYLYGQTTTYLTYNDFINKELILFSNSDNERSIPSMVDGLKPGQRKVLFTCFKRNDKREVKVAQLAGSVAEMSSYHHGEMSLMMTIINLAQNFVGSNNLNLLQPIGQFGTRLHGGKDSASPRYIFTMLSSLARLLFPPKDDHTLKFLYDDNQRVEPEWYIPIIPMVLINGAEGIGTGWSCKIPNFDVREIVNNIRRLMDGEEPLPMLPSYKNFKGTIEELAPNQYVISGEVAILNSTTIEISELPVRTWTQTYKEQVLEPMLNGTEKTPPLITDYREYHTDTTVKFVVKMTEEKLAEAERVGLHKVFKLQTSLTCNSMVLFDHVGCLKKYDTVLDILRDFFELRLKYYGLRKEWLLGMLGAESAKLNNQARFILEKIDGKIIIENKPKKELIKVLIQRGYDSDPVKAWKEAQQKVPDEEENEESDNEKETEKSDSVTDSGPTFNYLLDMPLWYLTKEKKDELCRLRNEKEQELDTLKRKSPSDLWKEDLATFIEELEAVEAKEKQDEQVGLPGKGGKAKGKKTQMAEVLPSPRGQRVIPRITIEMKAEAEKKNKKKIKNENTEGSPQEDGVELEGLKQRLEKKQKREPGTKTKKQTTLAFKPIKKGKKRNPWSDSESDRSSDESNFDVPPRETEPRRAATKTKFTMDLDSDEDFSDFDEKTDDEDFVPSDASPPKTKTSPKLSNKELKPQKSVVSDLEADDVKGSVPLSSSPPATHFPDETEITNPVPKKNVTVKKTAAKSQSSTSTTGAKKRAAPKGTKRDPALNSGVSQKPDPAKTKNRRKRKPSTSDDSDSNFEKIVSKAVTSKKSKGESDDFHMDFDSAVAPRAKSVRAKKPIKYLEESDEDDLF
Description: From the ChemGPS-NP analysis, it seems that the MOA for 3-methoxy-1,4-PQs might processes cytotoxicity as a topoisomerase II inhibitor.
Figure 10 Topoisomerase II DNA cleavage assay. An in vitro assay was used to assess the effect of compounds 6a and 5a on the DNA cleavage activity of human TopoII. Etoposide was the positive control. Control lane: TopoIIα + plasmid DNA. DMSO lane: TopoIIα + plasmid DNA + DMSO.
Topoisomerase II assay was performed by using a Topo II Drug Screening Kit (TopoGEN, Inc.). In brief, 0.1 µg of pHOT plasmid DNA was incubated with 2 units of topoisomerase IIα in 20 µL assay buffer at 37°C for 40 min in the presence of tested compounds (6a, 5a) and control drug, etoposide, respectively. 2 µL of 10% SDS and 2.5 µL of 10 mg/mL proteinase K were added into the reaction sample and then incubated for 30 min at 37°C to digest topoisomerase IIα. The samples were mixed with 2 µL of loading buffer and cleaned up by adding an equal volume of phenol:chloroform:isoamyl alcohol (25∶24∶1) according to the description. The sample was mixed by vortex and centrifuge for 10 sec. An aliquot (10 µL) of the upper aqueous part was analyzed by electrophoresis with 2% agarose gel containing 0.5 µg/mL of ethidium bromide.

human topoisomerase IIα = test system: human topoisomerase IIα; set-up: method as in PMID 15182198; details: cited from earlier work
[1] = MCF7, Table 2, synthesized phenanthrenes
[2] = range over the cancer cell lines tested, read-out: IC50 against various / all human cancer cell lines
[3] = HepG2, Table 2, synthesized phenanthrenes
[4] = Ca9-22, Table 2, synthesized phenanthrenes
[5] = Table 2, synthesized phenanthrenes
[6] = A549, Table 2, synthesized phenanthrenes
[7] = MRC5, Table 2, synthesized phenanthrenes
[8] = MDA-MB-231, Table 2, synthesized phenanthrenes

Compound	IC50 (MCF-7; [1]) [µg/mL]	MCF-7 activity class (from IC50) (MCF-7) [µg/mL]	IC50 (human cancer cell lines; [2]) [µg/mL]	IC50 (HepG2; [3]) [µg/mL]	IC50 (Ca9-22; [4]) [µg/mL]	IC50 (Hep3B; [5]) [µg/mL]	IC50 (A549; [6]) [µg/mL]	IC50 (MRC-5; [7]) [µg/mL]	IC50 (MDA-MB-231; [8]) [µg/mL]	melting point [°C]	other results
COC1=CC(=O)c2ccc3cc(OC)c(OC)c(OC(C)=O)c3c2C1=O [Compound 7a, 5-Acetoxy-3,6,7-trimethoxy-1,4-phenanthrenequinone]	0.16 (≈ 0.449 µM)	< 1	0.08 to 1.66 (≈ 0.225 to 4.66 µM)	11.3 ± 0.14 (≈ 31.7 µM)	0.84 ± 0.05 (≈ 2.36 µM)	0.36 ± 0.14 (≈ 1.01 µM)	0.6 ± 0.01 (≈ 1.68 µM)	1.14 ± 0.01 (≈ 3.2 µM)	1.13 ± 0.05 (≈ 3.17 µM)		IC50 (human cancer cell lines; HepG2, range over five cancer cell lines, not including HepG2, read-out: IC50 against five cancer cell lines): 0.16 to 1.66 µg/mL (≈ 0.449 to 4.66 µM)
COC1=CC(=O)c2ccc3cc(OC)cc(OC)c3c2C1=O [Compound 5b, 3,5,7-Trimethoxy-1,4-phenanthrenequinone]	14.4 ± 0.28 (≈ 48.3 µM)	1 to 20		13 ± 0.21 (≈ 43.5 µM)	15.25 ± 0.05 (≈ 51.1 µM)	15.9 ± 0.21 (≈ 53.5 µM)	15.7 ± 0.17 (≈ 52.7 µM)	> 20	19 ± 0.55 (≈ 63.6 µM)		activity against all human cancer cell lines (human cancer cell lines): marginal activities
COc1cc(OC)c2c3c(ccc2c1)C(=O)CC(OC)(OC)C3=O [Compound 5c, 3,3,5,7-tetramethoxy-2,3-dihydro-1,4-phenanthrenequinone]	11.1 ± 0.02 (≈ 33.6 µM)	1 to 20		> 20	9.07 ± 0.09 (≈ 27.5 µM)	13.8 ± 0.38 (≈ 41.7 µM)	12 ± 2.18 (≈ 36.3 µM)	> 20	19.1 ± 0.43 (≈ 57.9 µM)	179	
COC1=CC(=O)c2ccc3cc(OC)c(OC)c(OC)c3c2C1=O [Compound 5a, 3,5,6,7-Tetramethoxy-1,4-phenanthrenequinone]	14.3 ± 0.5 (≈ 43.5 µM)	1 to 20		4.65 ± 0.07 (≈ 14.2 µM)	5.99 ± 0.24 (≈ 18.2 µM)	4.67 ± 0.81 (≈ 14.2 µM)	11 ± 0.44 (≈ 33.6 µM)	> 20	> 20		activity against all human cancer cell lines (human cancer cell lines): marginal activities; inhibition on Topo IIα (supercoiled DNA instead of relaxed) (topoisomerase IIα; 200 µmol/L): had the similar effect; formation of linear DNA (Topo IIα DNA cleavage complex) (topoisomerase IIα): induced the formation of linear DNA
O=C1C=CC(=O)C=C1 [1,4-benzoquinone]											poisoning of human topoisomerase IIα (human topoisomerase IIα): poison human topoisomerase IIα
COC1=CC(=O)c2ccc3cc(OC)cc(O)c3c2C1=O [Compound 6b, 5-Hydroxy-3,7-dimethoxy-1,4-phenanthrenequinone]	0.26 (≈ 0.915 µM)		0.08 to 1.66 (≈ 0.281 to 5.84 µM)	0.23 ± 0.01 (≈ 0.809 µM)	0.68 (≈ 2.39 µM)	0.34 (≈ 1.2 µM)	0.99 ± 0.02 (≈ 3.48 µM)	2.14 ± 0.08 (≈ 7.53 µM)	1.06 ± 0.03 (≈ 3.73 µM)		
COC1=CC(=O)c2ccc3c(-c4c(OC)c(OC)c(OC)c5c6c(ccc45)C(OC)=CC(=O)C6=O)c(OC)c(OC)c(OC)c3c2C1=O [Compound 5f, 3,5,6,7,1′,5′,6′,7′-octamethoxy-[8,8′]bi-1,4,5′,6′-phenanthrenequinone]	14.8 ± 0.21 (≈ 22.6 µM)	1 to 20		19.6 ± 0.74 (≈ 30 µM)	4.57 ± 0.03 (≈ 6.98 µM)	7.88 ± 0.19 (≈ 12 µM)	> 20	> 20	4.74 ± 0.02 (≈ 7.24 µM)	268	
COc1cc(OC)c2c3c(ccc2c1)C(=O)C=CC3=O [Compound 4b, 5,7-Dimethoxy-1,4-phenanthrenequinone]	15.63 ± 0.01 (≈ 58.3 µM)	1 to 20		18.64 ± 0.14 (≈ 69.5 µM)	3.45 ± 0.03 (≈ 12.9 µM)	12.1 ± 0.33 (≈ 45.1 µM)	> 20	> 20	7.09 ± 0.01 (≈ 26.4 µM)	121	
COc1cc(O)c2c(ccc3c(OC)ccc(OC)c32)c1 [Compound 9b, 5-hydroxy-1,4,7-trimethoxy-phenanthrene]	> 20	> 20		> 20	> 20	> 20	> 20	> 20	> 20	71	
COC1=CC(=O)c2ccc3cc(OC)c(OC)c(O)c3c2C1=O [Compound 6a, 5-Hydroxy-3,6,7-trimethoxy-1,4-phenanthrenequinone]	0.2 (≈ 0.636 µM)	< 1	0.08 to 1.66 (≈ 0.255 to 5.28 µM)	0.08 (≈ 0.255 µM)	0.59 ± 0.01 (≈ 1.88 µM)	0.19 ± 0.01 (≈ 0.605 µM)	0.14 ± 0.02 (≈ 0.445 µM)	0.6 ± 0.05 (≈ 1.91 µM)	0.89 ± 0.01 (≈ 2.83 µM)		IC50 (MCF-7; MCF7, Table 1, natural phenanthrenes): 0.09 µg/mL (≈ 0.286 µM); fold greater cytotoxic activity than denbinobin (6b) (human cancer cell lines; HepG2, Hep3B, Ca9-22, A549, MEA-MB-231 and MCF7 cancer cell lines): up to 7 fold; IC50 (HepG2; HepG2, Table 1, natural phenanthrenes): 0.21 ± 0.01 µg/mL (≈ 0.668 µM); IC50 (Ca9-22; Ca9-22, Table 1, natural phenanthrenes): 0.17 ± 0.01 µg/mL (≈ 0.541 µM); IC50 (Hep3B; Table 1, natural phenanthrenes): 0.22 µg/mL (≈ 0.7 µM); IC50 (A549; A549, Table 1, natural phenanthrenes): 0.11 µg/mL (≈ 0.35 µM); IC50 (MRC-5; MRC5, Table 1, natural phenanthrenes): 0.65 µg/mL (≈ 2.07 µM); IC50 (MDA-MB-231; MDA-MB-231, Table 1, natural phenanthrenes): 0.64 ± 0.06 µg/mL (≈ 2.04 µM); inhibition on Topo IIα (supercoiled DNA instead of relaxed) (topoisomerase IIα; 100 µmol/L): showed the inhibition on Topo IIα; formation of linear DNA (Topo IIα DNA cleavage complex) (topoisomerase IIα): induced the formation of linear DNA
